Legend:
Glutamate NMDA receptor = assay: Binding affinity for N-methyl-D-aspartate glutamate receptor was measured through displacement of [3H]25-6981; type: protein-complex assay
[1] = pKa value was determined; type: physicochemical
[2] = target: T1, Adrenergic receptor alpha-2 (Rattus norvegicus, UniProt P22086+P19328+P22909); assay: Binding affinity towards Alpha-2 adrenergic receptor was measured through displacement of [3H]-RX-821002; type: protein assay
T1 sequence (P22086 whole entry): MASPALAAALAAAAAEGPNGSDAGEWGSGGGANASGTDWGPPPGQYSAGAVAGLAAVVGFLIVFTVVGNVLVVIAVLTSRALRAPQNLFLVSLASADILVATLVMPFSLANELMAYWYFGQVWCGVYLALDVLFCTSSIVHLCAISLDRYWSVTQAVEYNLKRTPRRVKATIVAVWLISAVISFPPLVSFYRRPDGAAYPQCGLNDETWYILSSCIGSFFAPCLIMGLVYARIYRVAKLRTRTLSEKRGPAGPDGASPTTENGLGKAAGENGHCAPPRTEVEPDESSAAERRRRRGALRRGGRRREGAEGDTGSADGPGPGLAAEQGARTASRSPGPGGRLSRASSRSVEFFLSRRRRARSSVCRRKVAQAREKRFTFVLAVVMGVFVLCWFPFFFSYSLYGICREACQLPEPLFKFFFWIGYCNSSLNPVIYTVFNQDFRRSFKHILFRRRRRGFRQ
T1 sequence (P19328 whole entry): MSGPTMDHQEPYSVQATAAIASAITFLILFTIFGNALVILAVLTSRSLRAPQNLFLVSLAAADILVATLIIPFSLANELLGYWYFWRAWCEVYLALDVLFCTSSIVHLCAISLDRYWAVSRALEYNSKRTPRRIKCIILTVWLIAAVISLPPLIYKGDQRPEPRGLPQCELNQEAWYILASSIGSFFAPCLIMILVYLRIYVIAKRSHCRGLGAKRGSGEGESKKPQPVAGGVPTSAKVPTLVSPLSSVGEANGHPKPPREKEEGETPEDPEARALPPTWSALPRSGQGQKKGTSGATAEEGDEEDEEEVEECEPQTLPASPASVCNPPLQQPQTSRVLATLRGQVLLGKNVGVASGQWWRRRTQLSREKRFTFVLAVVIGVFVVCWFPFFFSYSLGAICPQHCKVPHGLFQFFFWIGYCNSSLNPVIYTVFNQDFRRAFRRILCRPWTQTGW
T1 sequence (P22909 whole entry): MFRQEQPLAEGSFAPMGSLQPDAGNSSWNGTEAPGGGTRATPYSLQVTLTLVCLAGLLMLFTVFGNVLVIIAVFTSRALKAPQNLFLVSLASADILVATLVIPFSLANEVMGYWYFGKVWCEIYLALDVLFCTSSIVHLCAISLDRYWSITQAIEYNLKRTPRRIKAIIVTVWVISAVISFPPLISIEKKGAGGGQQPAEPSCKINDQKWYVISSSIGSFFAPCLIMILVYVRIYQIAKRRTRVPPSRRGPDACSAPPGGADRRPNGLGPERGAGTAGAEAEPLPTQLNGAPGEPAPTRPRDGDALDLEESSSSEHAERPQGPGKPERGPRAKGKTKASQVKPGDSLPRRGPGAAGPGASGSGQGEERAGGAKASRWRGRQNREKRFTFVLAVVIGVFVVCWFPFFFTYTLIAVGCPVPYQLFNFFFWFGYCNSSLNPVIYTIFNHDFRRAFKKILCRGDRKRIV

[3] = target: T2, Adrenergic receptor alpha-1 (Rattus norvegicus, UniProt P15823+P23944+P43140); assay: Binding affinity towards Alpha-1 adrenergic receptor was measured through displacement of [3H]prazosin; type: protein assay
T2 sequence (P15823 whole entry): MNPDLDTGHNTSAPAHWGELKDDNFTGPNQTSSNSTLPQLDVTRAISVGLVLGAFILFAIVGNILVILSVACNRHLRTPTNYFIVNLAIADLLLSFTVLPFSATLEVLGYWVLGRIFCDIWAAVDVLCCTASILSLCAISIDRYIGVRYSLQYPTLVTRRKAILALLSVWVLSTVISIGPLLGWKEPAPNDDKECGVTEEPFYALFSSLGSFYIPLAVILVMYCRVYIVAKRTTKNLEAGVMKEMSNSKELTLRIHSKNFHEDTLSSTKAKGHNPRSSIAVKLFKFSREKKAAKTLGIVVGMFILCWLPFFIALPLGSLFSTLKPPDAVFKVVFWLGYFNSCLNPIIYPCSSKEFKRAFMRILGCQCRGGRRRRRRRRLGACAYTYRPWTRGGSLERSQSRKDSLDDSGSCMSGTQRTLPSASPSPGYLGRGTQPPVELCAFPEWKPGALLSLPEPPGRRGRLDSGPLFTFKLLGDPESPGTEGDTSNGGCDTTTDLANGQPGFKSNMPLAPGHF
T2 sequence (P23944 whole entry): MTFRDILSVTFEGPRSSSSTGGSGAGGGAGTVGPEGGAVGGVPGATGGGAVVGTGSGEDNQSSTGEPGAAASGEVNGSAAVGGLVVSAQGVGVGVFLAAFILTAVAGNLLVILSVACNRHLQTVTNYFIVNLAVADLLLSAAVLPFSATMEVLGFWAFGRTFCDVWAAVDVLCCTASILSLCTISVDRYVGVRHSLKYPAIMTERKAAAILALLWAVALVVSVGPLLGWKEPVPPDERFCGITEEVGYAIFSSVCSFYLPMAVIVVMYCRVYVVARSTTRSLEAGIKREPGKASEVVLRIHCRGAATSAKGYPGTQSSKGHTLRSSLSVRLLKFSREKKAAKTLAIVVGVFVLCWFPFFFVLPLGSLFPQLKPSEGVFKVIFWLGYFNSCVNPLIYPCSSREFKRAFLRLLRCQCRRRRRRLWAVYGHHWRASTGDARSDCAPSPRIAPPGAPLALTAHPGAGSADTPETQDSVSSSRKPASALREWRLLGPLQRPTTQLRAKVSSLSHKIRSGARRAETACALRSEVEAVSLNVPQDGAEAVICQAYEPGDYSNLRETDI
T2 sequence (P43140 whole entry): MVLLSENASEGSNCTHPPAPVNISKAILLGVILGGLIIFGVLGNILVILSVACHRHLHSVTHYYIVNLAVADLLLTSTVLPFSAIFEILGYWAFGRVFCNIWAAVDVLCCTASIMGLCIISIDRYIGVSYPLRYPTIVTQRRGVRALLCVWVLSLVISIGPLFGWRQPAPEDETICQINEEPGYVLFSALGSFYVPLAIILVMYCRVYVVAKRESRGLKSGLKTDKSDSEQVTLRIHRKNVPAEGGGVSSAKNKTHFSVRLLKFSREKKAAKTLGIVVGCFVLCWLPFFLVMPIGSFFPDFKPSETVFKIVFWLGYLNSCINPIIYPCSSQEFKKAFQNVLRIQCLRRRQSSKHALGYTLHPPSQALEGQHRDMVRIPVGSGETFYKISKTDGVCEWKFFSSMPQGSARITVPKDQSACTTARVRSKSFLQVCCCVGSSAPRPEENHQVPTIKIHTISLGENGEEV

Rattus norvegicus = species on record: Rattus norvegicus; assay: Effect on K+ channels in rat cortical neurones at 10 uM; type: functional

In the case of CCCCCNC1=NCCN1OCc1cccc(F)c1, the Ki (Glutamate NMDA receptor) is reported as 23 nM.
In the case of CCCCCNC1=NCCN1OCc1ccccc1C, the Ki (Glutamate NMDA receptor) is reported as 34 nM.
CCCCCNC1=NCCN1OCc1ccc(F)cc1 gave a Ki (Glutamate NMDA receptor) of 100 nM.
With CCCCCNC1=NCCN1OCc1ccc(C)cc1 the Ki (Glutamate NMDA receptor) was 230 nM.
Work on CCCCNC1=NCCN1OCc1ccccc1 yielded a Ki (Glutamate NMDA receptor) of 60 nM.
Work on Oc1ccc(CCNC2=NCCN2OCc2ccccc2)cc1 yielded a Ki (Glutamate NMDA receptor) of 380 nM.
For CCCCCNC1=NCCN1CCc1ccccc1, the pKa [1] was over 12 and the Ki (Glutamate NMDA receptor) was 230 nM.
CCCCCNC1=NCCN1OCc1ccc(OC)cc1 gave a Ki (Glutamate NMDA receptor) of 110 nM.
In the case of CCCCCNC1=NCCN1OCc1ccccc1, the pKa [1] is reported as 10.1, the Ki [2] is reported as 30 µM and the Ki [3] is reported as 5.5 µM. It also gave an Effect (Rattus norvegicus) of 48%.
CCCCCNC1=NCCN1OCc1ccc(Cl)cc1 showed a Ki (Glutamate NMDA receptor) of 170 nM.
CCCCCNC1=NCCN1OCCCc1ccccc1 showed a pKa [1] of 10 and a Ki (Glutamate NMDA receptor) of 980 nM.
With CCCCCNC1=NCCN1OCCc1ccccc1 the pKa [1] was 9.9, the Ki [2] was 10 µM and the Ki [3] was 4.9 µM. The Effect (Rattus norvegicus) was 63%.
With CCCCC/N=C1/CCCN1CCc1ccccc1 the pKa [1] was over 11.
Compound CCCCCNC1=NCCN1OCc1ccc(-c2ccccc2)cc1 has a Ki (Glutamate NMDA receptor) of 1100 nM.
Compound CCCCCNC1=NCCN1OCc1ccc([N+](=O)[O-])cc1 has a Ki (Glutamate NMDA receptor) of 1100 nM.
OCCNC1=NCCN1OCc1ccccc1 gave a Ki (Glutamate NMDA receptor) of 2250 nM.
Compound CCCCCNC1=NCCN1OCc1cccc(C)c1 has a Ki (Glutamate NMDA receptor) of 38 nM.
C=CCNC1=NCCN1OCc1ccccc1 showed a Ki (Glutamate NMDA receptor) of 1100 nM.
Compound c1ccc(COCCNC2=NCCN2OCc2ccccc2)cc1 has a Ki (Glutamate NMDA receptor) of 1500 nM.
With c1ccc(CON2CCN=C2NC2CC2)cc1 the Ki (Glutamate NMDA receptor) was 260 nM.
CCCCCSC1=NCCN1OCc1ccccc1 gave a pKa [1] of 8.5 and a Ki (Glutamate NMDA receptor) of 6000 nM.
c1ccc(CCCNC2=NCCN2OCc2ccccc2)cc1 showed a Ki (Glutamate NMDA receptor) of 750 nM.
Compound c1ccc(CON2CCN=C2NCc2cccnc2)cc1 has a Ki (Glutamate NMDA receptor) of 380 nM.
Compound c1ccc(CNC2=NCCN2OCc2ccccc2)cc1 has a Ki (Glutamate NMDA receptor) of 130 nM.
For c1ccc(CCCCNC2=NCCN2OCc2ccccc2)cc1, the Ki (Glutamate NMDA receptor) was 380 nM.
In the case of CCCCCNC1=NCCN1OCc1ccccc1OC, the Ki (Glutamate NMDA receptor) is reported as 280 nM.
Work on CC(C)NC1=NCCN1OCc1ccccc1 yielded a Ki (Glutamate NMDA receptor) of 5600 nM.
With CCCCNC1=NCCCN1OCc1ccccc1 the pKa [1] was over 12 and the Ki (Glutamate NMDA receptor) was 750 nM.
CCCCCNC1=NCCN1OCc1ccccc1F showed a Ki (Glutamate NMDA receptor) of 15 nM.
CCCCCCNC1=NCCN1OCc1ccccc1 showed a Ki (Glutamate NMDA receptor) of 75 nM.
For CCCCCNC1=NCCN1OCc1cccs1, the Ki (Glutamate NMDA receptor) was 56 nM.
For CCCCCNC1=NCCN1OCc1ccccc1Cl, the Ki (Glutamate NMDA receptor) was 38 nM.
Work on c1ccc(CCNC2=NCCN2OCc2ccccc2)cc1 yielded a Ki (Glutamate NMDA receptor) of 1100 nM.
With CCCCCNC1=NCCN1OCc1cccc([N+](=O)[O-])c1 the Ki (Glutamate NMDA receptor) was 530 nM.
CCCCCNC1=NCCN1OCc1cccc(OC)c1 gave a Ki (Glutamate NMDA receptor) of 560 nM.
Work on CCCCCNc1nc2ccccc2n1CCc1ccccc1 yielded a pKa [1] of 7.4.

Reference: ChEMBL document CHEMBL1136222, “1-Benzyloxy-4,5-dihydro-1H-imidazol-2-yl-amines, a novel class of NR1/2B subtype selective NMDA receptor antagonists” (Bioorg Med Chem Lett, 2003)
